# Assays:
# [1] = tested on: CD34+ BMDEC; assay: SDF-1/Relaxin induced chemotaxis (Boyden chamber); type: cell-based, human; details: 10 μM L-NAME
# Procedure: Isolation of CD34+ BMDEC. The study protocol was approved by the Institutional Review Board of the University of Florida, and written informed consent was obtained from each subject. Blood was collected from healthy controls by routine venipuncture into CPT™ Tubes with heparin (BD Biosciences, Franklin Lakes, N.J.), centrifuged at room temperature in a swinging bucket rotor for 20 minutes at 1800 RCF, the peripheral blood mononuclear cells (PBMCs) diluted with phosphate buffered saline supplemented with 2 mM EDTA (PBSE) and centrifuged for 10 minutes at 300 RCF. After washing the cell pellet, centrifugation was repeated. 3.3×10^7 PBMCs were resuspended in 100 μl of PBSE to which 33 μl of FcR blocking reagent (Miltenyi Biotec Inc., Auburn, Calif.) and 33 μl of magnetic microbeads conjugated with an anti-CD34 antibody was added. After incubation for 30 minutes at 4° C., the cells were diluted in 10× the volume of PBSE supplemented with 0.1% bovine serum albumin. The CD34+ BMDEC were positively selected using an automated magnetic selection autoMACS™ (Miltenyi Biotec Inc., Auburn, Calif.). […] After 4.5 hours at 5% CO2 at 37° C., the percentage of cells that migrated was determined by collecting the media in the lower chamber and determining the relative fluorescence using a Synergy™ HT (Bio-Tek Instruments, Inc., Winooski, Vt.) with an excitation of 485±20 and an emission of 528±20 nm. […]
# [2] = tested on: CD34+ BMDEC; assay: Detection of nitric oxide (NO) produced by cells (DAF-FM fluorescence); type: cell-based, human; details: pretreatment with MK2206 20 nM 30 minutes; 50 ng/ml rhRLX
# Procedure: Isolation of CD34+ BMDEC. The study protocol was approved by the Institutional Review Board of the University of Florida, and written informed consent was obtained from each subject. Blood was collected from healthy controls by routine venipuncture into CPT™ Tubes with heparin (BD Biosciences, Franklin Lakes, N.J.), centrifuged at room temperature in a swinging bucket rotor for 20 minutes at 1800 RCF, the peripheral blood mononuclear cells (PBMCs) diluted with phosphate buffered saline supplemented with 2 mM EDTA (PBSE) and centrifuged for 10 minutes at 300 RCF. After washing the cell pellet, centrifugation was repeated. […]
# Detection of Nitric Oxide (NO) produced by cells. […] Bioavailable NO was determined as previously described (Shah, R., Beem, E., Sautina, L., Zharikov, S. I., and Segal, M. S. 2007. Mitomycin- and calcineurin-associated HUS, endothelial dysfunction and endothelial repair: a new paradigm for the puzzle? Nephrol Dial Transplant 22:617-620). […] DAF-FM fluorescence increases by about 160-fold when it reacts with NO. Green fluorescence was measured using the inverted fluorescent Carl Zeiss Axiovert 200M microscope equipped with a CCD camera and Slidebook software (v.4.1; Intelligent Imaging Innovations, Inc. Denver, Colo.). Fluorescence intensity was measured in 20-30 cells per field in at least 6 fields per well. […]
SMILES,effect on basal level of migration [1],effect on relaxin-stimulated chemotaxis ([1]; 50 ng/ml rhRLX),effect on rhRLX stimulation of NO [2]
"COC(=O)[C@@H](N)CCCNC(=N)N[N+](=O)[O-] [L-NAME, L—N^G-nitroarginine methy ester]",unaffected,blocked,–
NC1(c2ccc(-c3nc4ccn5c(=O)[nH]nc5c4cc3-c3ccccc3)cc2)CCC1 [MK2206],–,–,prevented
